Article PMC3604760 (mBio, 2013)

Legend:
[1] = molecular target: MBP-cTlp1 (Azospirillum brasilense, UniProt Q64I05, R562A); assay: equilibrium dialysis, HPLC quantification; format: binding
[2] = molecular target: MBP-cTlp1 (Azospirillum brasilense, UniProt Q64I05); assay: equilibrium dialysis, HPLC quantification; format: binding
Sequence of MBP-cTlp1 (Azospirillum brasilense, UniProt Q64I05) (Q64I05 344-660): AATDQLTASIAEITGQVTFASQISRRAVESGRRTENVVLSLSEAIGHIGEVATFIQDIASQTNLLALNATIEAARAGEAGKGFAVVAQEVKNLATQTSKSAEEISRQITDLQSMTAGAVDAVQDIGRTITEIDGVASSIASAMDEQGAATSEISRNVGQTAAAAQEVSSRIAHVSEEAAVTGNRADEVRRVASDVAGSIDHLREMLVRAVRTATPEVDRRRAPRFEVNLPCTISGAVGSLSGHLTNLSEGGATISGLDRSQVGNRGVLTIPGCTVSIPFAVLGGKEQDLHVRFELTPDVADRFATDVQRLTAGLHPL

Sequence of MBP-cTlp1 (Azospirillum brasilense, UniProt Q64I05, R562A) (Q64I05 344-660 R562A): as the sequence (Q64I05 344-660) above, with R219A counted along it

**Q.** Which results are given for `Nc1nc2c(ncn2[C@@H]2O[C@@H]3CO[P@](=O)(O)O[C@H]4[C@@H](O)[C@H](n5cnc6c(=O)[nH]c(N)nc65)O[C@@H]4CO[P@](=O)(O)O[C@H]3[C@H]2O)c(=O)[nH]1` [c-di-GMP]?
**A.** Kd [1]: 21.8 ± 7.1 µM; Kd [2]: 6.9 ± 1.2 µM
